Values of other authors as cited in patent US20040042990A1, “Composition containing oxidation-sensitive hydrophilic active principle and maleic anhydride copolymer, and use thereof” (L'OREAL, Paris, France, priority 2002, published 2004).

System: reconstructed skin

## O=C1O[C@H]([C@@H](O)CO)C([O-])=C1OP(=O)([O-])[O-].O=C1O[C@H]([C@@H](O)CO)C([O-])=C1OP(=O)([O-])[O-].[Mg+2].[Mg+2].[Mg+2] [magnesium ascorbyl phosphate]
Reconstructed skin culture medium
  number of fibroblasts in the lattice: significant increase
Reconstructed skin, in particular at the dermoepidermal junction
  synthesis of proteins of the extracellular matrix (collagens IV and VII, laminin): significant stimulation
